Laboratory results: patent US7785828B1 (priority 2003, dated 2010)

system: Fusarium graminearum; type: cell-based; parameters: key: + indicates a 1- to 5-fold improvement in activity compared to a reference defensin protein; ++ indicates a >5- to 10-fold improvement; +++ indicates a >10-fold improvement; “0” indicates no activity detected; conditions: not given

Substance | Activity (1): antifungal activity of the NP against Fusarium graminearium
QKLCERPSGTWSGVCMNSNACKNQCIRLEGARHGSCNYVFPAHKCICYFPC (Defensin like) [L2-53] | 0

same assay, conditions: Table 2B (Dm-AMP1 based libraries); improvement compared to reference defensin protein (Rs-AFP2 for Table 2B [sic])

Substance | Activity (1): antifungal activity of the NP against Fusarium graminearium
NLCEKASKTWTGNCGNTKHCDNQCRSWEGAKHGACMKRSGKWKCFCYFNC [L10-76] | ++ (++ indicates a >5- to 10-fold improvement)
NLCERASKTWTGNCGNTKHCDNQCKSWEGAKHGACHVRSGKHKCFCYFNC (Defensin like) [L5-37] | ++ (++ indicates a >5- to 10-fold improvement)
NLCERASKTWTGNCGNTKHCDNQCRNWEGAKHGACHVRSGKHKCFCYFNC (Defensin like) [L6-20] | ++ (++ indicates a >5- to 10-fold improvement)
NLCERASKTWTGNCGNTKHCDTQCRSWEGAKHGACHVRNGKWKCFCYFNC (Defensin like) [L6-62] | + (+ indicates a 1- to 5-fold improvement in activity compared to a reference defensin protein)
NLCERASKTWTGNCGNTKHCDNQCRNWEGAKHGACHVRNGKHKCFCYFNC (Defensin like) [L6-35] | ++ (++ indicates a >5- to 10-fold improvement)
NLCERASKTWSSNCGNTKHCDTQCKNWEGAKHGACHVRNGKWKCFCYFNC (Defensin like) [L10-60] | ++ (++ indicates a >5- to 10-fold improvement)
NLCERASKTWTGNCGNTKHCDTQCRSWEGAKHGACHVRSGKHKCFCYFNC (Defensin like) [L5-32] | + (+ indicates a 1- to 5-fold improvement in activity compared to a reference defensin protein)
NLCERASKTWTGNCGNTKHCDTQCRNWEGARHGACHVRNGKWKCFCYFNC (Defensin like) [L10-71] | ++ (++ indicates a >5- to 10-fold improvement)
NLCERASKTWTGNCGNTKHCDTQCRNWEGAKHGACHVRNGKWKCFCYFNC (Defensin like) [L5-46] | + (+ indicates a 1- to 5-fold improvement in activity compared to a reference defensin protein)
NLCERASKTWTGNCGNTKHCDTQCKSWEGAKHGACHVRNGKWKCFCYFNC (Defensin like) [L6-52] | + (+ indicates a 1- to 5-fold improvement in activity compared to a reference defensin protein)
NLWEKASLTWTGNCGNTKHCDNQCKNWESAAHGACHKRSGKWMCFCYFNC (Defensin like) [L4-1] | + (+ indicates a 1- to 5-fold improvement in activity compared to a reference defensin protein)
NLCERASKTWTGNCGNTKHCDNQCKNWEGAKHGACHKRSGKWKCFCYFNC (Defensin like) [L10-25] | + (+ indicates a 1- to 5-fold improvement in activity compared to a reference defensin protein)
NLCERASKTWTGNCGNTKHCDNQCKSWEGAKHGACHKRSGKWKCFCYFNC (Defensin like) [L9-04] | ++ (++ indicates a >5- to 10-fold improvement)
NLCERASKTWTGNCGNTKHCDTQCKSWEGAKHGACHKRSGKWKCFCYFNC (Defensin like) [L5-21] | + (+ indicates a 1- to 5-fold improvement in activity compared to a reference defensin protein)
NLCERASKTWTGNCGNTKHCDNQCRNWEGAKHGACHKRNGKWKCFCYFNC (Defensin like) [L9-12] | +++ (+++ indicates a >10-fold improvement)
NLCERASKTWTGNCGNTKHCDNQCKNWEGAKHGACHVRNGKHKCFCYFNC (Defensin like) [L6-08] | +++ (+++ indicates a >10-fold improvement)
NLCERASLTWTGNCGNTKHCDTQCKNWEGAKHGACHVRNGKWKCFCYFNC (Defensin like) [L3-02] | ++ (++ indicates a >5- to 10-fold improvement)
NLCERASKTWTGNCGNTKHCDNQCKSWEGAKHGACHVRNGKWKCFCYFNC (Defensin like) [L10-64] | ++ (++ indicates a >5- to 10-fold improvement)
NLCERASKTWSGDCGNTKHCDNQCRNWEGAKHGACHKRNGKWKCFCYFNC (Defensin like) [L10-62] | ++ (++ indicates a >5- to 10-fold improvement)
ELCERASKTWTGNCGNTKHCDNQCRSWESAAHGACHKRSGKWKCFCYFNC (Defensin like) [L3-87] | ++ (++ indicates a >5- to 10-fold improvement)

same assay, conditions: Table 2C (mixed diversity library); improvement compared to reference defensin protein DmAMP

Substance | Activity (1): antifungal activity of the NP against Fusarium graminearium
DGVKLCERPSQTWTGNCGNTKHCDKQCKSWEGAKHGACHKRNGKWKCFCYFNC (Defensin like) [L7-99] | + (+ indicates a 1- to 5-fold improvement in activity compared to a reference defensin protein)
---NLCERPSKTWTGHCGNTKHCDKQCKSWEGAKHGACHVRSGKWKCFCYFNC (Defensin like) [L7-26] | ++ (++ indicates a >5- to 10-fold improvement)
DGVKLCERPSQTWTGHCGNTKHCDKQCRNWEGAAHGACHKRSGKWKCFCYFNC (Defensin like) [L7-83] | ++ (++ indicates a >5- to 10-fold improvement)
---NLCERASKTWSGHCGNTKHCDNQCRNWEGAKHGACHKRNGKWKCFCYFNC (Defensin like) [L7-11] | ++ (++ indicates a >5- to 10-fold improvement)
DGVKLCEKPSKTWSGHCGNTKHCDKQCKNWEKAKHGACHKRNGKWKCFCYFNC (Defensin like) [L7-113] | + (+ indicates a 1- to 5-fold improvement in activity compared to a reference defensin protein)
DGVKLCERASKTWSGHCGNTKHCDKQCKNWEKAKHGACHKRSGKWKCFCYFNC (Defensin like) [L7-219] | + (+ indicates a 1- to 5-fold improvement in activity compared to a reference defensin protein)
--QKLCERASKTWTGHCGNTKHCDKQCKNWEKAKHGACHVRNGKWKCFCYFNC (Defensin like) [L7-34] | + (+ indicates a 1- to 5-fold improvement in activity compared to a reference defensin protein)
--QKLCERPSQTWTGHCGNTKHCDTQCKSWEGAKHGACHKRNGKWKCFCYFNC (Defensin like) [L7-44] | + (+ indicates a 1- to 5-fold improvement in activity compared to a reference defensin protein)
DGVKLCERASKTWTGNCGNTKHCDNQCKSWEGAKHGACHVRNGKHKCFCYFNC (Defensin like) [L7-76] | ++ (++ indicates a >5- to 10-fold improvement)
DGVKLCERASQTWSGHCGNTKHCDKQCKNWEKAAHGACHVRSGKWKCFCYFNC (Defensin like) [L7-14] | ++ (++ indicates a >5- to 10-fold improvement)
--QKLCEKASQTWTGHCGNTKHCDNQCRNWEKAAHGACHVRNGKWKCFCYFNC (Defensin like) [L7-19] | + (+ indicates a 1- to 5-fold improvement in activity compared to a reference defensin protein)
DGVKLCERASKTWSGHCGNTKHCDNQCRSWEGAKHGACHVRSGKHKCFCYFNC (Defensin like) [L7-213] | ++ (++ indicates a >5- to 10-fold improvement)
